Holding throughout (format): biochemical
One test addresses T1, ABHD6 (Mus musculus, UniProt Q8R2Y0).
T1 construct: Brain; from tissue; host or cells: mouse brain proteome
T1 sequence (Q8R2Y0 1-336): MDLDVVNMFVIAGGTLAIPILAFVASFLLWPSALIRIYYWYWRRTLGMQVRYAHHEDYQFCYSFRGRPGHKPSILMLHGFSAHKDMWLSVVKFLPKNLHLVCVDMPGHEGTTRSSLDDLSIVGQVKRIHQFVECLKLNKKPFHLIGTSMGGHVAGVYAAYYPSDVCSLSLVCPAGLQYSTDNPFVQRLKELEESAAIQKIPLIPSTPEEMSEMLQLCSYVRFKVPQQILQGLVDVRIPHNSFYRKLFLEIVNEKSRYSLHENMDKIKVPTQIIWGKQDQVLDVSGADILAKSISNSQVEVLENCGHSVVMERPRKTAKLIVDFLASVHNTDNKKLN
The experiment in a line: In vitro competitive activity-based protein profiling, mouse brain proteome (ABHD6). Particulars: mouse brain proteome; concentration not given (μM). The method, then:
[The source words this procedure for another target and reports this target under the same test.] In Vitro Competitive Activity-Based Protein Profiling.
Proteomes (human prefrontal cortex or cell membrane fractions) (50 μL, 1.0 mg/mL total protein concentration) were preincubated with varying concentrations of inhibitors at 37° C. After 30 min, FP-Rh or HT-01 (1.0 μL, 50 μM in DMSO) was added and the mixture was incubated for another 30 min at room temperature. Reactions were quenched with SDS loading buffer (15 μL-4×) and run on SDS-PAGE.

A further test addresses T2, MGLL (Mus musculus, UniProt O35678).
T2 construct: Brain; from tissue; host or cells: mouse brain proteome
T2 sequence (O35678 1-303): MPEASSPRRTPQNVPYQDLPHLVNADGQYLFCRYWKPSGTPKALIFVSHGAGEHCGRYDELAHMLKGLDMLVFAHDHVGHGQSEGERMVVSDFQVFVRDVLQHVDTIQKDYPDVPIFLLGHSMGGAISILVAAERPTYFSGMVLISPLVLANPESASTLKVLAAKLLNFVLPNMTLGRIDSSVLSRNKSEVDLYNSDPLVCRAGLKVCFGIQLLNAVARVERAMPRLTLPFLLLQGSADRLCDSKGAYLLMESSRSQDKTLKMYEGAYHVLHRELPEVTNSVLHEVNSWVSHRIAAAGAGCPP
In words: In vitro competitive activity-based protein profiling, mouse brain proteome (MGLL). Particulars: concentration not given (μM).

The target in another test is T3, MAGL (Homo sapiens, UniProt Q99685).
T3 construct: Proteomes (human prefrontal cortex or cell membrane fractions); from tissue
T3 sequence (Q99685 1-303): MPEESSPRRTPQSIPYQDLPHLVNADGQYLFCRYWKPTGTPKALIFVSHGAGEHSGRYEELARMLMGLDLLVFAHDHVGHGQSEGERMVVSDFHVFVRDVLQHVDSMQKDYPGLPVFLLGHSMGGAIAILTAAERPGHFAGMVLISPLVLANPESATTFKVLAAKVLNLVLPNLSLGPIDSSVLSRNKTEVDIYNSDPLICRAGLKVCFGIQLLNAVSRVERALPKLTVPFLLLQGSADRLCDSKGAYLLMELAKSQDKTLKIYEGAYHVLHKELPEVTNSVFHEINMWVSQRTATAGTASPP
The experiment in a line: In vitro competitive activity-based protein profiling (FP-Rh or HT-01 probe, gel-based). Particulars: for % Inh MGLL PFC (Human, μM): prefrontal cortex (PFC) proteome; for % Inh MGLL PFC (Human, μM) / % Inh MGLL PC3 (Human, μM): concentration not given (μM). The method in brief:
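Human prefrontal cortex or cell membrane proteomes (1.0 mg/mL total protein) were preincubated with varying inhibitor concentrations for 30 min at 37° C. FP-Rh or HT-01 probe (50 μM DMSO stock) was then added for 30 min at room temperature, and samples were quenched in SDS loading buffer and resolved by SDS-PAGE.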

The source of these data is patent US11161856B2 (H. Lundbeck A/S, priority 2017, dated 2021).

Broadly, the IC50 is the concentration that gives 50% inhibition.

On to `CC1(C(=O)O)CCN(c2cc(CN3CC4(CCN(C(=O)OC(C(F)(F)F)C(F)(F)F)CC4)C3)cc(C(F)(F)F)c2)C1` (stereo not drawn) [Example 121, l-(3-((7-(((1,1,1,3,3,3-Hexafluoropropan-2-yl)oxy)carbonyl)-2,7-diazaspiro[3.5]nonan-2-yl)methyl)-5-(trifluoromethyl)phenyl)-3-methylpyrrolidine-3-carboxylic acid], for which the “% Inh ABHD6 Brain (Mouse, μM)” value on ABHD6 is recorded as “### (### is ≥75%)”. Moreover, the “% Inh MGLL Brain (Mouse, μM)” value at MGLL is “### (### is ≥75%)”. In addition, the “% Inh MGLL PFC (Human, μM)” value on MAGL is “### (### is ≥75%)”.

Consider `O=C(O)C1CCN(c2cc(Cl)ccc2CN2CC3(CCN(C(=O)OC(C(F)(F)F)C(F)(F)F)CC3)C2)CC1` [Example 122, l-(5-Chloro-2-((7-(((1,1,1,3,3,3-hexafluoropropan-2-yl)oxy)carbonyl)-2,7-diazaspiro[3.5]nonan-2-yl)methyl)phenyl)piperidine-4-carboxylic acid], for which the “% Inh ABHD6 Brain (Mouse, μM)” value at ABHD6 is reported as “# (# is ≤25%)”. Further, the “% Inh MGLL Brain (Mouse, μM)” value on MGLL is “### (### is ≥75%)”. Moreover, the “% Inh MGLL PFC (Human, μM)” value at MAGL is recorded as “### (### is ≥75%)”.

With `O=C(O)C1CCN(c2cc(F)ccc2CN2CC3(CCN(C(=O)OC(C(F)(F)F)C(F)(F)F)CC3)C2)CC1` [Example 123, l-(5-Fluoro-2-((7-(((1,1,1,3,3,3-hexafluoropropan-2-yl)oxy)carbonyl)-2,7-diazaspiro[3,5]nonan-2-yl)methyl)phenyl)piperidine-4-carboxylic acid], at ABHD6, the “% Inh ABHD6 Brain (Mouse, μM)” value is listed as “# (# is ≤25%)”. Further, the “% Inh MGLL Brain (Mouse, μM)” value on MGLL is “### (### is ≥75%)”. Moreover, the “% Inh MGLL PFC (Human, μM)” value at MAGL is given as “### (### is ≥75%)”.

On to `CC1(N(CC(=O)O)Cc2ccc(C(F)(F)F)cc2N2CCOCC2)CCN(C(=O)OC(C(F)(F)F)C(F)(F)F)CC1` [Example 124, N-(1-(((1,1,1,3,3,3-Hexafluoropropan-2-yl)oxy)cart>onyl)-4-methylpiperidin-4-yl)-N-(2-morpholino-4-(trifluoromethyl)benzyl) glycine], for which the “% Inh ABHD6 Brain (Mouse, μM)” value at ABHD6 is “# (# is ≤25%)”. Further, the “% Inh MGLL Brain (Mouse, μM)” value at MGLL is “### (### is ≥75%)”. Moreover, the “% Inh MGLL PFC (Human, μM)” value on MAGL is “### (### is ≥75%)”.

Regarding `O=C(O)CN1CC2CC1CN2c1cc(CN2CCC3(CCN(C(=O)OC(C(F)(F)F)C(F)(F)F)CC3)C2)cc(C(F)(F)F)c1` (centres unmarked) [Example 125, 2-(5-{3-[(8-{[(1,1,1,3,3,3-Hexafluoropropan-2-yl)oxy]carbonvl}-2,8-diazaspiro[4.5]decan-2-yl)methyl]-5-(trifluoromethyl)phenyl}-2,5-diazabicyclo[2.2.1]heptan-2-yl)acetic acid], on ABHD6, the “% Inh ABHD6 Brain (Mouse, μM)” value is reported as “### (### is ≥75%)”. The “% Inh MGLL Brain (Mouse, μM)” value on MGLL is “### (### is ≥75%)”. In addition, the “% Inh MGLL PFC (Human, μM)” value on MAGL is “### (### is ≥75%)”.

As for `O=C(O)CN1CC2CC1CN2c1cc(C(F)(F)F)ccc1CN1CCCC12CCN(C(=O)OC(C(F)(F)F)C(F)(F)F)CC2` (centres unmarked) [Example 126, 2-(5-{2-[(8-{[(1,1,1,3,3,3-Hexafluoropropan-2-yl)oxy]carbonyl}-1,8-diazaspiro[4.5]decan-1-yl)methyl]-5-(trifluoromethyl)phenyl}-2,5-diazabicyclo[2.2.1]heptan-2-yl)acetic acid], the “% Inh ABHD6 Brain (Mouse, μM)” value on ABHD6 is given as “# (# is ≤25%)”. Moreover, at MGLL, the “% Inh MGLL Brain (Mouse, μM)” value is “### (### is ≥75%)”. In addition, the “% Inh MGLL PFC (Human, μM)” value at MAGL is reported as “### (### is ≥75%)”.

For `O=C(O)CN1CC2CC1CN2c1cc(C(F)(F)F)ccc1CN1CC2(CCN(C(=O)OC(C(F)(F)F)C(F)(F)F)CC2)C1` (centres unmarked) [Example 127, 2-(5-{2-[(7-{[(1,1,1,3,3,3-Hexafluoropropan-2-yl)oxy]carbonyl}-2,7-diazaspiro[3.5]nonan-2-yl)methyl]-5-(trifluoromethyl)phenyl}-2,5-diazabicyclo[2.2.1]heptan-2-yl)acetic acid], at ABHD6, the “% Inh ABHD6 Brain (Mouse, μM)” value is “### (### is ≥75%)”. The “% Inh MGLL Brain (Mouse, μM)” value at MGLL is on record as “### (### is ≥75%)”. The “% Inh MGLL PFC (Human, μM)” value at MAGL is listed as “### (### is ≥75%)”.

For the compound `O=C(O)CN1CC2CC1CN2c1cc(CN2CCCC23CCN(C(=O)OC(C(F)(F)F)C(F)(F)F)CC3)cc(C(F)(F)F)c1` (centres unmarked) [Example 128, 2-(5-{3-[(8-{[(1,1,1,3,3,3-Hexafluoropropan-2-yl)oxy]carbonyl}-1,8-diazaspiro[4.5]decan-1-yl)methyl]-5-(trifluoromethyl)phenyl}-2,5-diazabicyclo[2.2.1]heptan-2-yl)acetic acid], the “% Inh ABHD6 Brain (Mouse, μM)” value on ABHD6 is given as “# (# is ≤25%)”. The “% Inh MGLL Brain (Mouse, μM)” value on MGLL is “### (### is ≥75%)”. Moreover, the “% Inh MGLL PFC (Human, μM)” value on MAGL is on record as “### (### is ≥75%)”.

Turning to `O=C(O)CN1CC2CC1CN2c1cc(CN2CC3(CCN(C(=O)OC(C(F)(F)F)C(F)(F)F)CC3)C2)cc(C(F)(F)F)c1` (centres unmarked) [Example 129, 2-(5-{3-[(7-{[(U,l,3,3,3-Hexafluoropropan-2-yl)oxy]carbonyl}-2,7-diazaspiro[3.5]nonan-2-yl)methyl]-5-(trifluoromethyl)phenyl}-2,5-diazabicyclo[2.2.1]heptan-2-yl)acetic acid], the “% Inh ABHD6 Brain (Mouse, μM)” value at ABHD6 was “### (### is ≥75%)”. Further, the “% Inh MGLL Brain (Mouse, μM)” value at MGLL was “### (### is ≥75%)”. For the same compound, on MAGL, the “% Inh MGLL PFC (Human, μM)” value was “## (## is between 25 and 75%)”.

On to `CC1(C(=O)O)CN(c2cc(C(F)(F)F)ccc2CN2CC3(CCN(C(=O)OC(C(F)(F)F)C(F)(F)F)CC3)C2)CCO1` (centres unmarked) [Example 130, 4-(2-((7-(((1,1,1,3,3,3-Hexafluoropropan-2-yl)oxy)carbonyl)-2,7-diazaspiro[3.5]nonan-2-yl)methyl)-5-(trifluoromethyl)phenyl)-2-methylmorpholine-2-carboxylic acid], for which the “% Inh ABHD6 Brain (Mouse, μM)” value at ABHD6 is recorded as “# (# is ≤25%)”. Moreover, the “% Inh MGLL Brain (Mouse, μM)” value on MGLL is “### (### is ≥75%)”. On MAGL, the “% Inh MGLL PFC (Human, μM)” value is recorded as “### (### is ≥75%)”.

For `O=C(O)c1ccc(CN2CC3(CCN(C(=O)OC(C(F)(F)F)C(F)(F)F)CC3)C2)cc1C(F)(F)F` [Example 131, 4-((7-(((1,1,1,3,3,3-Hexafluoropropan-2-yl)oxy)carbonyl)-2,7-diazaspiro[3,5]nonan-2-yl)methyl)-2-(trifluoromethyl)benzoic acid], on ABHD6, the “% Inh ABHD6 Brain (Mouse, μM)” value is “### (### is ≥75%)”. Also, the “% Inh MGLL Brain (Mouse, μM)” value at MGLL was “## (## is between 25 and 75%)”. Besides, at MAGL, the “% Inh MGLL PFC (Human, μM)” value is given as “### (### is ≥75%)”.

As for `CN(Cc1ccc(C(F)(F)F)cc1N1CCC[C@H]1C(=O)O)C1(C)CCN(C(=O)OC(C(F)(F)F)C(F)(F)F)CC1` [Example 132, (2-(((1-(((1,U, 3,3,3-Hexafluoropropan-2-yl)oxy)carbonyl)-4-methylpiperidin-4-yl)(methyl)amino)methyl)-5-(trifluoromethyl)phenyl)proline], the “% Inh ABHD6 Brain (Mouse, μM)” value at ABHD6 is given as “# (# is ≤25%)”. Further, the “% Inh MGLL Brain (Mouse, μM)” value on MGLL is “### (### is ≥75%)”. Also, the “% Inh MGLL PC3 (Human, μM)” value at MAGL (PC3 cell proteome) is listed as “### (### is ≥75%)”. Besides, the IC50 on MAGL (PC3 cell proteome, read-out: IC50 MGLL PC3 (Human)) fell in the range of 100 to 1000 nM. Besides, the “% Inh MGLL PFC (Human, μM)” value on MAGL is on record as “### (### is ≥75%)”.

`CN(Cc1ccc(C(F)(F)F)cc1C1(C(=O)O)CCCC1)C1(C)CCN(C(=O)OC(C(F)(F)F)C(F)(F)F)CC1` [Example 133, l-(2-{[(1-{[(1,1,1,3,3,3-Hexafluoropropan-2-yl)oxy]carbonyl}-4-methylpiperidin-4-yl)(methyl)amino]methyl}-5-(trifluoromethyl)phenyl)cyclop entane-1-carboxylic acid]: the “% Inh ABHD6 Brain (Mouse, μM)” value at ABHD6 is listed as “# (# is ≤25%)”. Also, on MGLL, the “% Inh MGLL Brain (Mouse, μM)” value is on record as “### (### is ≥75%)”. In addition, the “% Inh MGLL PC3 (Human, μM)” value on MAGL (PC3 cell proteome) was “### (### is ≥75%)”.
